In patent US20190069544A1, “COMPOSITION COMPRISING A MEL, A FATTY ACID METHYL ESTER AND A NON-IONIC […] A HLB VALUE GREATER THAN OR EQUAL TO 12” (OLEON NV, priority 2016, published 2019):

How the values were obtained:
[1] = tested on: chenopodium plants (Chenopodium album); assay: Cell activity of plant roots by fluorescent markers after treatment; assay type: in vivo; conditions: 24 to 48 h after treatment, 500 g/ha, 2% ammonium sulphate (FIG. 10)
Description: (§1) Composition 2 according to the invention prepared in Example 1 was used in combination with an herbicide active ingredient (glyphosate) in the treatment of chenopodium plants (Chenopodium album). The chenopodium plants used were at a 2 to 3 leaves stage (BBCH 12-13), and were grown in a phytotron at a temperature of 15° C. during the night and 20° C. during the day, with a photoperiod of 14 hours. The glyphosate used was non-formulated (technical ingredient, reference 4521, Sigma-Aldrich®). […]
The evaluation of the effectiveness was carried out by measuring the cell activity of the roots of the plants 24 to 48 h after treatment. The cell activity is measured by staining the cells using fluorescent markers making it possible to distinguish: • the cells having a metabolic activity (living cells), which emit a green fluorescence; • the structures which emit a blue fluorescence; and • the dead cells, which emit a red fluorescence.
When the cell metabolic activity reduces, the green fluorescence reduces.

[2] = tested on: chenopodium plants (Chenopodium album); assay: Herbicide effectiveness: destruction of the vegetation, naked eye, 14 days after treatment; assay type: in vivo
Description: as §1
Evaluation of the effectiveness was also carried out by observation of the plants with the naked eye 14 days after treatment. The effectiveness is evaluated in percentage of destruction of the vegetation, taking into account the size of the plants and the symptoms of phytotoxicity such as deformation of the leaves, the appearance of white patches and necrosis.

O=C(O)CNCP(=O)(O)O [glyphosate]
Reduction in the intensity of the fluorescence in the cells of the roots (cell metabolic activity) [1]: not observed | Phytotoxicity, in words ([2]; 14 days after treatment (FIGS. 11, 12)): not observed | Effectiveness (average), percentage of destruction of the vegetation ([2]; 14 days after treatment, dose 500 g/ha, 2% ammonium sulphate, average of 4 pots of 4 plants): 0%
